From US4855430A, “Polycyclicamine with psychotropic activity” (American Home Products Corporation, priority 1987, dated 1989)
Structures can show the parent of a compound that is named as a salt. Where two headings read alike, the source gives them in different places.

Experiments:
[1] = target: T1, 5-HT1A serotonin receptor (Rattus norvegicus, UniProt P19327); assay: ex vivo inhibition of 5-HT1A serotonin receptor binding assay (3H-8-OH-DPAT, hippocampal tissue); details: read-out: % Inhibition of 8-OH DPAT Binding at 1 μM
T1 construct: Hippocampal tissue is dissected and homogenized on ice; from tissue; host or cells: rat hippocampus (membrane homogenate)
T1 sequence (P19327 1-422): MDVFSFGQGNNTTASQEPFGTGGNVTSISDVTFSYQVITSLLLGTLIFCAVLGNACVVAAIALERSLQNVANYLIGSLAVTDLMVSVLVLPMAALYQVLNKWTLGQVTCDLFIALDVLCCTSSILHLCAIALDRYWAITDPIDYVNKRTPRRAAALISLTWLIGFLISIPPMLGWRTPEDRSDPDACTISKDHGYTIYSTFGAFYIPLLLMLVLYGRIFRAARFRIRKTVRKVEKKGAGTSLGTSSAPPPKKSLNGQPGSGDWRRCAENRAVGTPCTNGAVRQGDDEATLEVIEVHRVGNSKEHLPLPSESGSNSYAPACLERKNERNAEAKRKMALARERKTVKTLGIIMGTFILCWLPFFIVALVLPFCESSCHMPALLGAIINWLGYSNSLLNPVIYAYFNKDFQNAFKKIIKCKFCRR
Protocol: The assay is carried out as follows:
Several groups of rats (4-6 rats/group) are injected with test compound or the appropriate vehicle. Thirty minutes later, unless otherwise noted, rats are decapitated and their brains removed. Various brain regions are dissected and rapidly frozen and maintained at -70° C. until used.
The homogenate is then centrifuged at 20,000 rpm (RC5-B; 40,000 g) and the supernatant discarded. The pellet is resuspended in 40 vols of the same buffer and incubated at 37° C. for 10 minutes to aid in the removal of endogenous serotonin. The homogenate is then centrifuged (as above) and the supernatant discarded. The pellet is then resuspended in 100 vols of buffer B (50 mM Tris HCl, pH=7.7 containing 0.1% ascorbate, 10 μM pargyline and 4 mM CaCl2) and sonicated. An aliquot is taken for protein determination by the Lowry method and the remainder stored frozen at -70° C. until used.
The homogenate (50 μl; 0.4-0.6 mg protein/sample) is incubated with 100 μl (1.5-1.8 nM) ^3 H-8-hydroxy-2-(di-n-propylamino)tetraline in a final volume of 2 ml of buffer for 10 minutes at 37° C.
Specific binding obtained in vehicle-treated rats is compared to that obtained in animals receiving a single or various doses of test compound and expressed as percent of control.

[2] = target: limbic D-2 dopamine receptor (Rattus norvegicus, UniProt P61169); assay: inhibition of limbic D-2 dopamine receptor binding (3H-spiroperidol), in vitro; details: read-out: % Inhibition of H3-Spiroperidol Binding at 1 μM
Sequence of limbic D-2 dopamine receptor (P61169 whole entry): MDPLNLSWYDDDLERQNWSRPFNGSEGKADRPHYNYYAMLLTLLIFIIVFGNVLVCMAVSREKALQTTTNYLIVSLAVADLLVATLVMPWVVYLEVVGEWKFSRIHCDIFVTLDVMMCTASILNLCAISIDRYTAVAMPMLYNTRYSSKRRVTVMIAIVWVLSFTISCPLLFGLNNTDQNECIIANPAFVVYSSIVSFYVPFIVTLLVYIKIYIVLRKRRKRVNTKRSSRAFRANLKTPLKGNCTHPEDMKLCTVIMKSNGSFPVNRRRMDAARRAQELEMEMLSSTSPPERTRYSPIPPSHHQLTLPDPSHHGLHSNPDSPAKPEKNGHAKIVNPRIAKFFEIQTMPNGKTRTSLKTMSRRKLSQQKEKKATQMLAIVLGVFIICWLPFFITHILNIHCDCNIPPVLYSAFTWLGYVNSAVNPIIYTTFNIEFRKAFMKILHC
Protocol: The compounds of the invention are also studied for their ability to inhibit limbic D-2 dopamine receptor binding. This in vitro assay measures the ability of the compounds tested to bind to the dopamine receptor sites.
The test is carried out as follows:
Several rats are decapitated and the brains are rapidly removed. Limbic brain tissue (nucleus accumbens, septal area, olfactory tubercle) is dissected and homogenized on ice in 9 volumes of buffer (50 mM Tris-HCl, 120 mM NaCl, 5 mM KCl, 1 mM CaCl2, 1 mM MgCl2, 0.1% L-ascorbic acid, 10 μM pargyline HCl, pH 7.1) using a Polytron homogenizer at setting 5 for three 15-sec bursts. The homogenate is then diluted 4-fold with buffer and centrifuged at 30,000×g for 20 minutes, and the supernatant is discarded. The pellet is resuspended in the same volume of buffer and recentrifuged as before, again discarding the supernatant. This pellet is then resuspended in the same volume of buffer used in the homogenization, and the protein content of this preparation is assayed by the Lowry method. The homogenate is stored frozen at -70° C. until use.
Thirty μl of the homogenate (0.2-0.3 mg protein/sample) are incubated with 0.3 mM ^3 H-spiroperidol (New England Nuclear) and various concentrations of test drug in a final volume of 1 ml of the above buffer for 10 minutes in a 37° C. water bath. At the end of the incubation, 3 ml of cold 50 mM Tris-HCl, pH 7.7, are added to each tube, and the contents are rapidly vacuum-filtered through Whatman GF/B glass-fiber filters. The filters are then rapidly washed 3 times with 3 ml of the same buffer, placed in scintillation vials, and shaken for 15 minutes with 10 ml of Hydrofluor (National Diagnostics) scintillation cocktail. The vials are then counted in a Packard 460 CD scintillation counter.
Specific binding is defined as total binding less binding in the presence of 1 μM (+)butaclamol. Binding in the presence of various concentrations of test drug is expressed as a percent of specific binding when no drug is present. […] Ki (inhibition constant) for the test drug is then calculated by the formula: [formula]

[3] = system: 5-HT1A receptor; details: literature, in words; cited from earlier work
[4] = West German Patent Application No. 3,321,969A; cited from earlier work
[5] = 1 μM, 3H-8-OH-DPAT, rat hippocampal tissue

O=C(CCCN1CC2C3C=CC(CCC3)C2C1)c1ccc(F)cc1 (centres unmarked) [Example 3, 1-(4-Fluorophenyl)-4-(3,3a,4,5,6,7,8,8a-octahydro-4,8-ethenocyclohepta[c]pyrrol-2(1H)-yl)-1-butanone, hydrochloride, hydrate]
inhibition at 1 µM [1]: 61%
inhibition at 1 µM [2]: 100%

C1=CC2C3CCC3C1C1CN(CCc3ccc4ccccc4n3)CC21 (centres unmarked) [Example 4, 2,3,3a,4,4a,5,6,6a,7,7a-Decahydro-2-[2-(2-quinolinyl)ethyl]-4,7-etheno-2H-cyclobut[f]isoindole, dihydrochloride, hydrate]
inhibition at 1 µM [1, 5]: 97%
inhibition at 1 µM [2]: 17%

C1=CC2C3CCC3C1C1CN(CCc3ccccn3)CC21 (centres unmarked) [Example 6, 2,3,3a,4,4a,5,6,6a,7,7a-Decahydro-2-[2-(2-pyridinyl)ethyl]-4,7-etheno-1H-cyclobut[f]isoindole, dihydrochloride, 1/4 hydrate]
inhibition at 1 µM [1, 5]: 89%
inhibition at 1 µM [2]: 3%

C1=CC2C1C1C=CC2C2CN(CCc3ccc4ccccc4n3)CC12 (centres unmarked) [Example 7, 2,3,3a,4,4a,6a,6,7,7a-Octahydro-2-[2-(2-quinolinyl)ethyl]4,7-etheno-1H-cyclobut[f]isoindole, dihydrochloride, 11/4 hydrate]
inhibition at 1 µM [1, 5]: 46%

Clc1cccc(N2CCN(CCCN3CC4CCC(CC4)C3)CC2)c1 [Example 8, 3-[3-[4-(3-Chlorophenyl)-1-piperazinyl]propyl]-3-azabicyclo[3.2.2]nonane, dihydrochloride]
inhibition at 1 µM [1]: 82%
inhibition at 1 µM [2]: 11%

Clc1cccc(N2CCN(CCCN3CC4C5C=CC(C6CCC56)C4C3)CC2)c1 (centres unmarked) [Example 9, 2-[3-[4-(3-Chlorophenyl)-1-piperazinyl]propyl]-2,3,3a,4,4a,5,6,7,7a-decahydro-4,7-etheno-1H-cyclobut[f]isoindole, trihydrochloride, dihydrate]
inhibition at 1 µM [2]: 40%

O=C(CCCN1CC2C3C=CC(C4CC34)C2C1)c1ccc(F)cc1 (centres unmarked) [Example 10, 1-(4-Fluorophenyl)-4-(3,3a,4,4a,5,5a,6,6a-octahydro-4,6-ethenocycloprop[f]isoindole-2-(1H)-yl)-1-butanone, hydrochloride, sesquihydrate]
inhibition at 1 µM [2]: 93%

c1ccc2nc(CCN3CC4CCC(CC4)C3)ccc2c1 [Example 12, 3-[2-(2-Quinolinyl)ethyl[-3-azabicyclo[3.2.2]nonane, dihydrochloride, dihydrate]
inhibition at 1 µM [1]: 30%

COc1ccccc1N1CCN(CCCN2CC3CCC(CC3)C2)CC1 [Example 13, 3-[3-[4-(2-Methoxyphenyl)-1-piperazinyl]propyl]-3-azabicyclo[3.2.2]nonane, trihydrochloride, 3/4 hydrate]
inhibition at 1 µM [2]: 55%

O=C1c2ccccc2S(=O)(=O)N1CCCCN1CCN(c2ncccn2)CC1 [TVX Q 7821, 2-[4-[4-(2-pyrimidinyl)-1-piperazinyl]butyl]-1,2-benzisothiazol-3-(2H)one1,1-dioxide hydrochloride]
binding at the 5-HT1A site [3]: demonstrate binding at the 5-HT1A site
antidepressant activity [4]: possess antidepressant activity

O=C1CC2(CCCC2)CC(=O)N1CCCCN1CCN(c2ncccn2)CC1 [buspirone, 8-[4-[4-(2-pyrimidinyl)-1-piperazinyl]butyl]-8-azaspiro[4.5]decane-7,9-dione]
binding at the 5-HT1A site [3]: demonstrate binding at the 5-HT1A site

CCCC(C)C1(CC)C(=O)NC(=O)NC1=O (centres unmarked) [pentobarbital]
binding at the 5-HT1A site [3]: do not act via the 5-HT1A receptor
